Experimental data: ChEMBL document CHEMBL5335868, “Exploring Scaffold Hopping for Novel 2-(Quinolin-4-yloxy)acetamides with Enhanced Antimycobacterial Activity” (ACS Med Chem Lett, 2024)
≈ marks a conversion by molar mass, not a printed value.

system: not listed separately; test: Solubility of compound at pH 1.2 at 1 mg incubated for 4 hrs by LC analysis; type: physicochemical; settings: not given

SMILES	solubility at 4 h [µM]
COc1ccc2nc(C)cc(OCC(=O)Nc3ccc(N4CCC(c5ccc(OC(F)(F)F)cc5)CC4)cc3)c2c1	20 (≈ 11.3 µg/mL)
Cc1cc(OCC(=O)Nc2ccc(N3CCC(c4ccccc4)CC3)cc2)c2cc(Br)ccc2n1	> 1880
COc1ccc2nc(C)cc(OCC(=O)Nc3ccc(N4CCC(c5ccccc5)CC4)cc3)c2c1	410 (≈ 197 µg/mL)
Cc1cc(OCC(=O)Nc2ccc(N3CCC(c4ccccc4)CC3)cc2)c2cc(Cl)ccc2n1	> 2060

system: not listed separately; test: Metabolic stability in rat liver microsomes assessed as half life at 1 mg/ml measured for 30 mins in presence of […] by HPLC-MS/MS analysis; type: ADME, Microsome; settings: not given

SMILES	half-life [min]
COc1ccc2nc(C)cc(OCC(=O)Nc3ccc(N4CCC(c5ccc(OC(F)(F)F)cc5)CC4)cc3)c2c1	21
Cc1cc(OCC(=O)Nc2ccc(N3CCC(c4ccccc4)CC3)cc2)c2cc(Br)ccc2n1	76.4
COc1ccc2nc(C)cc(OCC(=O)Nc3ccc(N4CCC(c5ccccc5)CC4)cc3)c2c1	7.1
Cc1cc(OCC(=O)Nc2ccc(N3CCC(c4ccccc4)CC3)cc2)c2cc(Cl)ccc2n1	177

system: not listed separately; test: Cytotoxicity against African green monkey Vero cells incubated for 72 hrs by NRU assay; type: toxicity, cell-based; settings: chlorocebus sabaeus

SMILES	CC50 at 72 h [µM]
COc1ccc2nc(C)cc(OCC(=O)Nc3ccc(N4CCC(c5ccc(OC(F)(F)F)cc5)CC4)cc3)c2c1	> 10
Cc1cc(OCC(=O)Nc2ccc(N3CCC(c4ccccc4)CC3)cc2)c2cc(Br)ccc2n1	> 10
COc1ccc2nc(C)cc(OCC(=O)Nc3ccc(N4CCC(c5ccccc5)CC4)cc3)c2c1	> 10
Cc1cc(OCC(=O)Nc2ccc(N3CCC(c4ccccc4)CC3)cc2)c2cc(Cl)ccc2n1	> 10

system: Mycobacterium tuberculosis; test: Antibacterial activity against H37Rv infected in mouse RAW264.7 cells assessed as reduction in bacterial load by measuring colony forming units per well at 2.5 uM measured for 5 days by plate counting method (Rvb ~ 1.25 log10CFU); type: functional; settings: time 5 day

SMILES	Activity [log10CFU]
Cc1cc(OCC(=O)Nc2ccc(N3CCC(c4ccccc4)CC3)cc2)c2cc(Cl)ccc2n1	0.48

system: not listed separately; test: Solubility of compound at pH 7.4 at 1 mg incubated for 4 hrs by LC analysis; type: physicochemical; settings: not given

SMILES	solubility at 4 h [µM]
COc1ccc2nc(C)cc(OCC(=O)Nc3ccc(N4CCC(c5ccc(OC(F)(F)F)cc5)CC4)cc3)c2c1	2190 (≈ 1240 µg/mL)
Cc1cc(OCC(=O)Nc2ccc(N3CCC(c4ccccc4)CC3)cc2)c2cc(Br)ccc2n1	2640 (≈ 1400 µg/mL)
COc1ccc2nc(C)cc(OCC(=O)Nc3ccc(N4CCC(c5ccccc5)CC4)cc3)c2c1	2220 (≈ 1070 µg/mL)
Cc1cc(OCC(=O)Nc2ccc(N3CCC(c4ccccc4)CC3)cc2)c2cc(Cl)ccc2n1	4030 (≈ 1960 µg/mL)

system: not listed separately; test: Chemical stability of compound at pH 1.2 assessed as compound remaining at 10 uM incubated for 24 hrs by HPLC-MS/MS analysis; type: physicochemical; settings: buffer, read-out: Stability

SMILES	remaining at 24 h, 10 µM [%]
COc1ccc2nc(C)cc(OCC(=O)Nc3ccc(N4CCC(c5ccc(OC(F)(F)F)cc5)CC4)cc3)c2c1	100
Cc1cc(OCC(=O)Nc2ccc(N3CCC(c4ccccc4)CC3)cc2)c2cc(Br)ccc2n1	100
COc1ccc2nc(C)cc(OCC(=O)Nc3ccc(N4CCC(c5ccccc5)CC4)cc3)c2c1	52.4
Cc1cc(OCC(=O)Nc2ccc(N3CCC(c4ccccc4)CC3)cc2)c2cc(Cl)ccc2n1	90.6

system: not listed separately; test: Cytotoxicity against African green monkey Vero cells incubated for 72 hrs by MTT assay; type: toxicity, cell-based; settings: chlorocebus sabaeus

SMILES	CC50 at 72 h [µM]
COc1ccc2nc(C)cc(OCC(=O)Nc3ccc(N4CCC(c5ccc(OC(F)(F)F)cc5)CC4)cc3)c2c1	> 10
Cc1cc(OCC(=O)Nc2ccc(N3CCC(c4ccccc4)CC3)cc2)c2cc(Br)ccc2n1	> 10
COc1ccc2nc(C)cc(OCC(=O)Nc3ccc(N4CCC(c5ccccc5)CC4)cc3)c2c1	> 10
Cc1cc(OCC(=O)Nc2ccc(N3CCC(c4ccccc4)CC3)cc2)c2cc(Cl)ccc2n1	> 10

system: not listed separately; test: Chemical stability of compound at pH 7.4 assessed as compound remaining at 10 uM incubated for 24 hrs by HPLC-MS/MS analysis; type: physicochemical; settings: buffer, read-out: Stability

SMILES	remaining at 24 h, 10 µM [%]
COc1ccc2nc(C)cc(OCC(=O)Nc3ccc(N4CCC(c5ccc(OC(F)(F)F)cc5)CC4)cc3)c2c1	85.3
Cc1cc(OCC(=O)Nc2ccc(N3CCC(c4ccccc4)CC3)cc2)c2cc(Br)ccc2n1	93.9
COc1ccc2nc(C)cc(OCC(=O)Nc3ccc(N4CCC(c5ccccc5)CC4)cc3)c2c1	96.3
Cc1cc(OCC(=O)Nc2ccc(N3CCC(c4ccccc4)CC3)cc2)c2cc(Cl)ccc2n1	100

system: not listed separately; test: Cytotoxicity against human HepG2 cells incubated for 72 hrs by NRU assay; type: toxicity, cell-based; settings: not given

SMILES	CC50 at 72 h [µM]
COc1ccc2nc(C)cc(OCC(=O)Nc3ccc(N4CCC(c5ccc(OC(F)(F)F)cc5)CC4)cc3)c2c1	> 10
Cc1cc(OCC(=O)Nc2ccc(N3CCC(c4ccccc4)CC3)cc2)c2cc(Br)ccc2n1	> 10
COc1ccc2nc(C)cc(OCC(=O)Nc3ccc(N4CCC(c5ccccc5)CC4)cc3)c2c1	> 10
Cc1cc(OCC(=O)Nc2ccc(N3CCC(c4ccccc4)CC3)cc2)c2cc(Cl)ccc2n1	> 10

system: Mycobacterium tuberculosis; test: Antibacterial activity against H37Rv infected in mouse RAW264.7 cells assessed as reduction in bacterial load by measuring colony forming units per well at 2.5 uM measured after 5 days by plate counting method (reference value: 4.19 +/- 0.41 log10CFU); type: functional; settings: time 5 day

SMILES	Activity [log10CFU]
Cc1cc(OCC(=O)Nc2ccc(N3CCC(c4ccccc4)CC3)cc2)c2cc(Cl)ccc2n1	2.46

system: not listed separately; test: Permeability of compound at 10 uM measured after 5 hrs by PAMPA assay; type: ADME; settings: read-out: permeability

SMILES	Papp at 5 h, 10 µM [×10⁻⁶ cm/s]
COc1ccc2nc(C)cc(OCC(=O)Nc3ccc(N4CCC(c5ccc(OC(F)(F)F)cc5)CC4)cc3)c2c1	0.16
Cc1cc(OCC(=O)Nc2ccc(N3CCC(c4ccccc4)CC3)cc2)c2cc(Br)ccc2n1	0.35
COc1ccc2nc(C)cc(OCC(=O)Nc3ccc(N4CCC(c5ccccc5)CC4)cc3)c2c1	0.001
Cc1cc(OCC(=O)Nc2ccc(N3CCC(c4ccccc4)CC3)cc2)c2cc(Cl)ccc2n1	0.49

system: Mycobacterium tuberculosis; test: Antibacterial activity against Mycobacterium tuberculosis H37Rv assessed as bacterial growth inhibition measured after 7 days by resazurin based assay; type: functional; settings: 168 h, time 7 day

SMILES	MIC [µM]
COc1ccc2nc(C)cc(OCC(=O)Nc3ccc(N4CCCCC4)cc3)c2c1	0.09 (≈ 0.0365 µg/mL)
CCc1cc(OCC(=O)Nc2ccc(N3CCC(c4ccc(OC(F)(F)F)cc4)CC3)cc2)c2cc(OC)ccc2n1	2.1 (≈ 1.22 µg/mL)
COc1ccc2nc(C)cc(OCC(=O)Nc3ccc(N4CCC(c5ccc(OC(F)(F)F)cc5)CC4)cc3)c2c1	0.02 (≈ 0.0113 µg/mL)
Cc1cc(OCC(=O)Nc2ccc(N3CCC(c4ccccc4)CC3)cc2)c2cc(Br)ccc2n1	0.02 (≈ 0.0106 µg/mL)
COc1ccc2nc(C)cc(OCC(=O)Nc3ccc(N4CCC(c5ccccc5)CC4)cc3)c2c1	0.02 (≈ 0.00963 µg/mL)
O=C(COc1cc(C(F)(F)F)nc2ccc(Br)cc12)Nc1ccc(N2CCC(c3ccccc3)CC2)cc1	34.2 (≈ 20 µg/mL)
Cc1cc(OCC(=O)Nc2ccc(N3CCC(c4ccccc4)CC3)cc2)c2cc(Cl)ccc2n1	0.02 (≈ 0.00972 µg/mL)
Cc1cc(OCC(=O)Nc2ccc(N3CCC(c4ccc(OC(F)(F)F)cc4)CC3)cc2)c2cc(Cl)ccc2n1	0.14 (≈ 0.0798 µg/mL)
CCc1cc(OCC(=O)Nc2ccc(N3CCC(c4ccc(OC(F)(F)F)cc4)CC3)cc2)c2cc(Cl)ccc2n1	0.07 (≈ 0.0409 µg/mL)
CCc1cc(OCC(=O)Nc2ccc(N3CCC(c4ccccc4)CC3)cc2)c2cc(OC)ccc2n1	0.08 (≈ 0.0396 µg/mL)
CCc1cc(OCC(=O)Nc2ccc(N3CCC(c4ccc(OC(F)(F)F)cc4)CC3)cc2)c2cc(Br)ccc2n1	7.9 (≈ 4.97 µg/mL)
Cc1cc(OCC(=O)Nc2ccc(N3CCC(c4ccc(OC(F)(F)F)cc4)CC3)cc2)c2cc(Br)ccc2n1	0.06 (≈ 0.0369 µg/mL)
O=C(COc1cc(C(F)(F)F)nc2ccc(Cl)cc12)Nc1ccc(N2CCC(c3ccccc3)CC2)cc1	74 (≈ 40 µg/mL)
CCc1cc(OCC(=O)Nc2ccc(N3CCC(c4ccccc4)CC3)cc2)c2cc(Br)ccc2n1	0.07 (≈ 0.0381 µg/mL)
COc1ccc2nc(C(F)(F)F)cc(OCC(=O)Nc3ccc(N4CCC(c5ccccc5)CC4)cc3)c2c1	0.1 (≈ 0.0536 µg/mL)
CCc1cc(OCC(=O)Nc2ccc(N3CCC(c4ccccc4)CC3)cc2)c2cc(Cl)ccc2n1	0.04 (≈ 0.02 µg/mL)
NNC(=O)c1ccncc1 [ISONIAZID]	2.3 (≈ 0.315 µg/mL)
CCc1nc2ccc(Cl)cn2c1C(=O)NCc1ccc(N2CCC(c3ccc(OC(F)(F)F)cc3)CC2)cc1 [TELACEBEC]	0.009 (≈ 0.00501 µg/mL)

system: not listed separately; test: Chemical stability of compound at pH 9.1 assessed as compound remaining at 10 uM incubated for 24 hrs by HPLC-MS/MS analysis; type: physicochemical; settings: buffer, read-out: Stability

SMILES	remaining at 24 h, 10 µM [%]
COc1ccc2nc(C)cc(OCC(=O)Nc3ccc(N4CCC(c5ccc(OC(F)(F)F)cc5)CC4)cc3)c2c1	96.8
Cc1cc(OCC(=O)Nc2ccc(N3CCC(c4ccccc4)CC3)cc2)c2cc(Br)ccc2n1	100
COc1ccc2nc(C)cc(OCC(=O)Nc3ccc(N4CCC(c5ccccc5)CC4)cc3)c2c1	22.6
Cc1cc(OCC(=O)Nc2ccc(N3CCC(c4ccccc4)CC3)cc2)c2cc(Cl)ccc2n1	99

system: not listed separately; test: Cytotoxicity against human HepG2 cells incubated for 72 hrs by MTT assay; type: toxicity, cell-based; settings: not given

SMILES	CC50 at 72 h [µM]
COc1ccc2nc(C)cc(OCC(=O)Nc3ccc(N4CCC(c5ccc(OC(F)(F)F)cc5)CC4)cc3)c2c1	> 10
Cc1cc(OCC(=O)Nc2ccc(N3CCC(c4ccccc4)CC3)cc2)c2cc(Br)ccc2n1	> 10
COc1ccc2nc(C)cc(OCC(=O)Nc3ccc(N4CCC(c5ccccc5)CC4)cc3)c2c1	> 10
Cc1cc(OCC(=O)Nc2ccc(N3CCC(c4ccccc4)CC3)cc2)c2cc(Cl)ccc2n1	> 10
